Assay results taken from patent US20090264384A1, “INDOLE, BENZIMIDAZOLE, AND BENZOLACTAM BORONIC ACID COMPOUNDS, ANALOGS THEREOF AND METHODS OF USE THEREOF” (Nuada, Inc., priority 2004, published 2009).

Experiments:
AT2(h) = biological target: T1, AT2(h) (Homo sapiens, UniProt P50052); assay: AT2(h) binding assay; settings: read-out: % Inhibition of Control Specific Binding
T1 construct: expressed in transfected cells; host or cells: Hela cells

BZD (central) = BZD (central) binding assay; set-up: species or system rat; settings: 1.0E−05 M
Kainate = Kainate binding assay; set-up: species or system rat; settings: 1.0E−05 M
NMDA = NMDA binding assay; set-up: species or system rat; settings: 1.0E−05 M
H3 = H3 binding assay; set-up: species or system rat; settings: 1.0E−05 M
Y (non-selective) = Y (non-selective) binding assay; set-up: species or system rat; settings: 1.0E−05 M
Opiate (non-selective) = Opiate (non-selective) binding assay; set-up: species or system rat; settings: 1.0E−05 M
TRH = TRH binding assay; set-up: species or system rat; settings: 1.0E−05 M
V2(h) = biological target: T2, V2(h) (Homo sapiens, UniProt P30518); assay: V2(h) binding assay; settings: 1.0E−05 M; read-out: % Inhibition of Control Specific Binding
T2 construct: expressed in transfected cells; host or cells: CHO cells
T2 sequence (P30518 whole entry): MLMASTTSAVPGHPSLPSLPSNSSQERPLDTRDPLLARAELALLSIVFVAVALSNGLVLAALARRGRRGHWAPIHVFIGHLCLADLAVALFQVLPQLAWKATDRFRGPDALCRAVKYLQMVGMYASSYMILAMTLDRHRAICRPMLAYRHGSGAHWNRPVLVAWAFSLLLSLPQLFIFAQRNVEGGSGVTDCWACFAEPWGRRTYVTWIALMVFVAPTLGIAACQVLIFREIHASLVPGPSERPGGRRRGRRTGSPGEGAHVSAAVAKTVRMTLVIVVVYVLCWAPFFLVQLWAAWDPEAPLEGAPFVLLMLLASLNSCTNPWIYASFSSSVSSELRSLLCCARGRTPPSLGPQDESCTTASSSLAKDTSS

K^+V channel = K^+V channel binding assay; set-up: species or system rat; settings: 1.0E−05 M
NE transporter(h) = biological target: T3, NE transporter(h) (Homo sapiens, UniProt P23975); assay: NE transporter(h) binding assay; settings: read-out: % Inhibition of Control Specific Binding
T3 construct: expressed in transfected cells; host or cells: MDCK cells
T3 sequence (P23975 whole entry): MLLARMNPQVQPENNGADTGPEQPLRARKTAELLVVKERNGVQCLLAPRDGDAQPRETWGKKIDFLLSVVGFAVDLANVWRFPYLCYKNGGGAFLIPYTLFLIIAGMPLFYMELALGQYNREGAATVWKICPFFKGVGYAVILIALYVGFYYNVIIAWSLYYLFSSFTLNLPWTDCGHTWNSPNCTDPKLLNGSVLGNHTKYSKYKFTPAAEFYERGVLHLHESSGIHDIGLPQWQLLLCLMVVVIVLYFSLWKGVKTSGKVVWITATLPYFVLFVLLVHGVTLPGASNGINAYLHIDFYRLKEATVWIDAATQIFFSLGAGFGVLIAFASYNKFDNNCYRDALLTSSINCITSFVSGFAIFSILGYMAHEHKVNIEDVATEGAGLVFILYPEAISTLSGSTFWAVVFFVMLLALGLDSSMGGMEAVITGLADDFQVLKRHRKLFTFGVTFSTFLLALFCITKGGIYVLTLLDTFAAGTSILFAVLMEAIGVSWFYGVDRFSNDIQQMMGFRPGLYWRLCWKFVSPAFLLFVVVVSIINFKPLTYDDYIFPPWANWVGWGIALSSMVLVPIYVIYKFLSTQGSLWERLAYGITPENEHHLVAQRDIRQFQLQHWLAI

DA transporter(h) = biological target: T4, DA transporter(h) (Homo sapiens, UniProt Q01959); assay: DA transporter(h) binding assay; settings: 1.0E−05 M; read-out: % Inhibition of Control Specific Binding
T4 construct: expressed in transfected cells; host or cells: CHO cells
T4 sequence (Q01959 whole entry): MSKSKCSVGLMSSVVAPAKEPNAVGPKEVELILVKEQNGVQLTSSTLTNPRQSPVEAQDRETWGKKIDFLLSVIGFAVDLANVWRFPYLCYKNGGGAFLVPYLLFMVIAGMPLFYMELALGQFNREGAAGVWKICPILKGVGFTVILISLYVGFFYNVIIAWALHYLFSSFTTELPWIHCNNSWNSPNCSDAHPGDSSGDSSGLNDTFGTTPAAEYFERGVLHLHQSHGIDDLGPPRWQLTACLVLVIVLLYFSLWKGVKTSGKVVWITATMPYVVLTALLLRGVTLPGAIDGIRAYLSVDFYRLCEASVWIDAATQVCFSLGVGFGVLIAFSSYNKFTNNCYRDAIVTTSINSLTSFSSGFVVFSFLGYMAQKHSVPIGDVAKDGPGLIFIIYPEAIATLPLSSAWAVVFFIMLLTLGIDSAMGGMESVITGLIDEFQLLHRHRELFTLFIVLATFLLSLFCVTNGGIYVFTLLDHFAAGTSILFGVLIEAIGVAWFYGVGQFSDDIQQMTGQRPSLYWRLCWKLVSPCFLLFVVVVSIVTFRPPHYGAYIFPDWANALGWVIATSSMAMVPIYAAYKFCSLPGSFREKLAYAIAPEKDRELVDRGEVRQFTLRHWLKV

Phosphodiesterase 5(h) = biological target: T5, Phosphodiesterase 5(h) (Homo sapiens, UniProt O76074); assay: Phosphodiesterase 5(h) enzyme assay; format: biochemical; settings: 1.0E−05 M
T5 construct: human platelets; from tissue; host or cells: human platelets

ATPase (Na^+/K^+) = biological target: T6, ATPase (Na^+/K^+) (Canis lupus familiaris, UniProt P50997); assay: ATPase (Na^+/K^+) enzyme assay; format: biochemical, dog; settings: 1.0E−05 M
T6 construct: dog kidney; from tissue; host or cells: dog kidney

[1] = system: colitis provoked by trinitrobenzene sulphonic acid (TNBS); assay: Rat model of colitis provoked by TNBS, 3 days, treatment from Day −1 (CCI-7155, CCI-7156); format: in vivo; settings: vs CMC group
Protocol: The effects of CCI-7155 and CCI-7156, were evaluated in the TNBS model at one and two oral dose levels, administered twice a day by gavage, treatment commencing 1 day prior to challenge. A low intracolonic concentration of TNBS (10 mg) was used, known to produce reproducible yet not unduly severe mucosal injury in the colon, determined 3 days after instillation. Colonic macroscopic injury has been assessed, as has colonic weight as a reflection of colonic oedema and wet/dry weight to determine colonic water content, along with determination of myeloperoxidase (MPO) activity (Bradley et al, 1982) as an index of white cell infiltration for the evaluation of tissue injury. In addition to the test compounds [CCI-7155 and CCI-7156], the actions of sulfasalazine, a well-established and currently used treatment has also been evaluated in this model.
TNBS Challenge—Male Wistar rats (230-280 g) were randomised into groups of 8-10 before commencement of the study. Food was withdrawn 18 h (overnight) before TNBS administration, but the rats were allowed free access to drinking water. On the morning of the day of challenge, Day 0, the rats were transiently anaesthetised with ether and TNBS (10 mg in 0.25 ml of 50% ethanol) was instilled approximately 6-8 cm into the colon using a soft plastic catheter inserted in the rat rectum. The rats were allowed to recover with free access to food and drinking water. At the end of the experiment, 72 h after TNBS administration (i.e. on the morning of Day 3, between 9.00 and 11.00), the distal colon was dissected, and the distal 8 cm photographed and stored appropriately for subsequent analyses.
The following primary parameters were measured in the main study: (a) macroscopic scoring of distal 8 cm of colon; (b) myeloperoxidase levels in segments of distal 8 cm of colon. In addition, the weight of the colonic segment was assessed as an indirect and non-specific marker of oedema, and this was supported by measurement of the wet/dry ratio as an index of water content. The body weight of the animals was also determined and expressed as % change from the day of challenge.
Treatments. All challenged groups were dosed orally twice daily from Day −1. The groups for study were:
The compounds were thus administered orally, twice daily and given on Day −b 1 before TNBS administration, on Day 0, the day of TNBS administration and on Day 1 and 2. Tissues were removed 72 h after TNBS administration (on Day3). Dosing was performed once in the morning (Between 9:00 and 11:00) and once in the late afternoon (between 18:00 and 20:00).
Preparation of Compound. CCI-7155 and CCI-7156 were suspended in 0.5% w/v carboxy methyl cellulose in sterile water, to produce a smooth suspension as instructed, and administered in a volume of 2 ml/kg (˜0.5 ml per rat per dose).
Preparation of Sulfasalazine. the Doses of Sulfasalazine Used in the Present study were derived from previously published work with this agent in the TNBS model (Boughton-Smith et al, 1988; Sykes et al, 1999; Galvez et al, 2000; Bobin-Dubigeon et al, 2001). Sulfasalazine was suspended in carboxy methyl cellulose (0.5% w/v in sterile water; Sigma Chemical Co, compound reference M-0262) and administered p.o. in a volume of 0.5 ml. In previous studies in these laboratories, this concentration of carboxy methyl cellulose (CMC) had no significant effect on the extent of colitis as determined by macroscopic injury and changes in inflammatory markers following TNBS challenge.
Macrocopic Injury. The distal 8 cm portion of the colon (measured from the rectum) was removed, opened longitudinally and gently rinsed with ice-cold phosphate buffer (PBS; pH 7.4), blotted, weighed (Scaltec, Germany) and photographed (Samsung, Digimax 340, digital camera). The tissue was then cut into longitudinal strips, each strip being thus 8 cm long and included the whole of the zone of injury. […]

[2] = 50 mg/kg/day p.o. in divided doses, 72 h after TNBS

T1 sequence (P50052 whole entry): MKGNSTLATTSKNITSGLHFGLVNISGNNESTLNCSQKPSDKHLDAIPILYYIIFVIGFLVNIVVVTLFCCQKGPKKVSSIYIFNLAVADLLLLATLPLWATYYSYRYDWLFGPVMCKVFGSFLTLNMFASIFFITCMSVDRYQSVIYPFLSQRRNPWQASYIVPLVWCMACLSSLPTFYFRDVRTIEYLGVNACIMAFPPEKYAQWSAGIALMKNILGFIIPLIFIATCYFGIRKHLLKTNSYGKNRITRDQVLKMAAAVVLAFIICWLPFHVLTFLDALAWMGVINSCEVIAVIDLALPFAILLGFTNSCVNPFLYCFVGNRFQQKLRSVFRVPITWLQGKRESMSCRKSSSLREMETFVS

## N#Cc1ccc2c(ccn2CCCCCB(O)O)c1 [Example 20, 5-(5-cyano-1H-indol-1-yl)pentylboronic acid]
AT2(h)
  inhibition at 10 µM: 3%
BZD (central)
  % Inhibition of Control Specific Binding: 18%
Kainate
  % Inhibition of Control Specific Binding: −6%
NMDA
  % Inhibition of Control Specific Binding: 19%
H3
  % Inhibition of Control Specific Binding: 0%
Y (non-selective)
  % Inhibition of Control Specific Binding: 14%
Opiate (non-selective)
  % Inhibition of Control Specific Binding: 20%
TRH
  % Inhibition of Control Specific Binding: −17%
V2(h)
  inhibition at 10 µM: 5%
K^+V channel
  % Inhibition of Control Specific Binding: −5%
NE transporter(h)
  inhibition at 10 µM: 15%
DA transporter(h)
  inhibition at 10 µM: 47%
Phosphodiesterase 5(h)
  % Inhibition of Control Values: 94%
ATPase (Na^+/K^+)
  % Inhibition of Control Values: 8%

## O=C(O)c1cc(/N=N/c2ccc(S(=O)(=O)Nc3ccccn3)cc2)ccc1O [sulfasalazine, reference compound]
[1]; 50 mg/kg/day p.o. in divided doses b.i.d.
  attenuation of TNBS-induced fall in body weight (% change in body weight at Day 0): did not reach statistical significance
[1]; [2]
  reduction in area of macroscopic colonic injury: significantly (P<0.001) reduced the extent of macroscopic injury
  reduction in colon weight: significant reduction in colon weight was also not observed
  reduction in colonic MPO levels: significantly reduced the elevated colonic levels of MPO
  reduction in colonic water content (wet/dry weight): significant reduction in colon weight was also not observed
